The record followed here is paper PMC13170813, “Agmatine coumaroyltransferase gene on the short arm of chromosome 2H is involved in hordatine biosynthesis in barley” (Plant Biotechnology, 2026).

The subject of this assay is T1, HvACT-2HS1.
T1 construct: full-length, 467 residues; pET28a (NdeI) N-terminal His-tag removed with thrombin; E. coli Rosetta 2 (DE3); 57 kDa SDS-PAGE, 51 kDa native, monomer
Kind of assay: HPLC of product ([…] nm), Michaelis-Menten non-linear fit. To be noted: 100 mM Tris-HCl pH 8.5, 40°C. The assay is classed as biochemical, Hordeum vulgare subsp. vulgare.

What is called Km is the substrate concentration at which the rate is half of its maximum. As for `NCCCCN` [Putrescine], the Km (100 µM p-coumaroyl-CoA) worked out at 30000 µM.

As to `N=C(N)NCCCCN` [Agmatine], for the setting “100 µM p-coumaroyl-CoA”, the Km was 30 ± 1.3 µM.

For the molecule `COc1cc(/C=C/C(=O)SCCNC(=O)CCNC(=O)[C@H](O)C(C)(C)COP(=O)(O)OP(=O)(O)OC[C@H]2O[C@@H](n3cnc4c(N)ncnc43)[C@H](O)[C@@H]2OP(=O)(O)O)ccc1O` [Feruloyl-CoA], the Km (100 µM agmatine) came out at 6.6 ± 2.2 µM.

Regarding `CC(C)(COP(=O)(O)OP(=O)(O)OC[C@H]1O[C@@H](n2cnc3c(N)ncnc32)[C@H](O)[C@@H]1OP(=O)(O)O)[C@@H](O)C(=O)NCCC(=O)NCCSC(=O)/C=C/c1ccc(O)cc1` [p-Coumaroyl-CoA], the Michaelis-Menten constant (Km) (100 µM agmatine) came to 12 ± 1.3 µM.
